Measurements taken from patent publication US9650395B2, “Antibacterial compounds and methods for use” (PTC Therapeutics, Inc., priority 2011, dated 2017).
Values after ≈ are worked out from the molar mass of the structure shown.

How the values were obtained:
[1] = system: super sensitive Gram-negative Escherichia coli (E. coli) BAS849; assay: Antibacterial activity, microbroth dilution MIC, E. coli BAS849; assay type: cell-based; conditions: E. coli BAS849, microbroth dilution; for MIC: Escherichia coli, read-out: MIC, BAS849
[2] = system: control Gram-negative E. coli 25922 strain; assay: Antibacterial activity, microbroth dilution MIC, E. coli 25922; assay type: cell-based, Escherichia coli; conditions: E. coli 25922, microbroth dilution; for MIC: Escherichia coli, read-out: MIC, 25922
[3] = system: Gram-positive Staphylococcus aureus (S. aureus) 29213; assay: Antibacterial activity, microbroth dilution MIC, S. aureus 29213; assay type: cell-based; conditions: S. aureus 29213, microbroth dilution; for MIC: Staphylococcus aureus, read-out: MIC, 29213
[4] = system: quinolone resistant E. coli LZ3111; assay: Antibacterial activity, MIC, quinolone resistant E. coli LZ3111; assay type: cell-based, Escherichia coli; conditions: for MIC: Escherichia coli, read-out: MIC, LZ3111
Source text: (§1) The antibacterial activity from a microbroth dilution method may be presented as the minimum inhibitory concentration (MIC in […]). The MIC value is the lowest concentration of a drug which prevents macroscopically visible bacterial growth under test conditions.
Mutations in these regions are known to confer a high level resistance to the quinolone class of antibiotics.

[5] = system: Acinetobacter baumannii (A. baumannii) BAA747; assay: Antibacterial activity, MIC, A. baumannii BAA747; assay type: cell-based; conditions: A. baumannii BAA747; for MIC: Acinetobacter baumannii, read-out: MIC BAA747
[6] = system: Klebsiella pneumoniae (K. pneumoniae) 35657; assay: Antibacterial activity, MIC, K. pneumoniae 35657; assay type: cell-based; conditions: for MIC: Klebsiella pneumoniae
[7] = system: resistant A. baumannii MXX2240 (MDR clinical isolate); assay: Antibacterial activity, MIC, resistant A. baumannii MXX2240; assay type: cell-based, Acinetobacter baumannii; conditions: resistant A. baumannii MMX2240, MDR clinical isolate; for MIC: Acinetobacter baumannii, read-out: MIC MMX2240
[8] = system: resistant K. pneumoniae MXX1232 (MDR clinical isolate); assay: Antibacterial activity, MIC, resistant K. pneumoniae MXX1232; assay type: cell-based, Klebsiella pneumoniae; conditions: Klebsiella pneumoniae; resistant K. pneumoniae MMX1232, MDR clinical isolate; read-out: MIC MMX1232
[9] = system: Pseudomonas aeruginosa (P. aeruginosa) 27853; assay: Antibacterial activity, MIC, P. aeruginosa 27853; assay type: cell-based; conditions: P. aeruginosa 27853; for MIC: Pseudomonas aeruginosa, read-out: MIC 27853
Source text: as §1
Antibacterial activity of test compounds against the Gram-negative bacterium Pseudomonas aeruginosa (P. aeruginosa) 27853 is shown in Table 5.

[10] = system: E. coli ELZ4000 (MDR clinical isolate); assay: Antibacterial activity, MIC, MDR E. coli ELZ4000; assay type: cell-based, Escherichia coli; conditions: E. coli ELZ4000, MDR clinical isolate; for MIC: Escherichia coli, read-out: MIC ELZ4000
[11] = system: E. coli ELZ4251 (MDR clinical isolate); assay: Antibacterial activity, MIC, MDR E. coli ELZ4251; assay type: cell-based, Escherichia coli; conditions: E. coli ELZ4251, MDR clinical isolate
[12] = system: Haemophilus influenzae (H. influenzae) 49247; assay: Antibacterial activity, MIC, H. influenzae 49247; assay type: cell-based; conditions: H. influenzae 49247
Summary of the method: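 A microbroth dilution method gave the minimum inhibitory concentration for each compound against H. influenzae 49247, a Gram-negative bacterium. MIC means the smallest concentration of drug at which no macroscopically visible bacterial growth appears under the conditions of the test.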

[13] = system: Moraxella catarrhalis (M. catarrhalis) 25238; assay: Antibacterial activity, MIC, M. catarrhalis 25238; assay type: cell-based; conditions: M. catarrhalis 25238
[14] = system: Neisseria meningitidis (N. meningitidis) 13090; assay: Antibacterial activity, MIC, N. meningitidis 13090; assay type: cell-based; conditions: N. meningitidis 13090

Compound | MIC [1] [µg/mL] | MIC [2] [µg/mL] | MIC [3] [µg/mL] | MIC [4] [µg/mL] | MIC [5] [µg/mL] | MIC [6] [µg/mL] | MIC [7] [µg/mL] | MIC [8] [µg/mL] | MIC [9] [µg/mL] | MIC ELZ4251 [11] | MIC 35657 [6] | MIC 27853 [9] | MIC [10] [µg/mL] | further results
CCc1cc(C(=O)O)c(=O)[nH]c1-c1ccc(N2CCC(NC3CC3)C2)cc1 (centres unmarked) [Cpd 173, 6-{4-[3-(cyclopropylamino)pyrrolidin-1-yl]phenyl}-5-ethyl-2-oxo-1,2-dihydropyridine-3-carboxylic acid] | < 1 | 1 to 3.5 (≈ 2.72 to 9.53 µM) | 12.5 to 150 (≈ 34 to 408 µM) | 12.5 to 150 (≈ 34 to 408 µM) | 3.5 to 12.5 (≈ 9.53 to 34 µM) | 1 to 3.5 (≈ 2.72 to 9.53 µM) | 12.5 to 150 (≈ 34 to 408 µM) | 12.5 to 150 (≈ 34 to 408 µM) | 12.5 to 150 (≈ 34 to 408 µM) | – | – | – | – | –
CCc1cc(C(=O)O)c(=O)[nH]c1-c1ccc(N2CCC(c3ccncc3)C2)cc1 (centres unmarked) [Cpd 226, 5-ethyl-2-oxo-6-{4-[3-(pyridin-4-yl)pyrrolidin-1-yl]phenyl}-1,2-dihydropyridine-3-carboxylic acid] | < 1 | 1 to 3.5 (≈ 2.57 to 8.99 µM) | 3.5 to 12.5 (≈ 8.99 to 32.1 µM) | 12.5 to 150 (≈ 32.1 to 385 µM) | 1 to 3.5 (≈ 2.57 to 8.99 µM) | 3.5 to 12.5 (≈ 8.99 to 32.1 µM) | 12.5 to 150 (≈ 32.1 to 385 µM) | 12.5 to 150 (≈ 32.1 to 385 µM) | 12.5 to 150 (≈ 32.1 to 385 µM) | – | – | – | – | –
CCc1cc(C(=O)O)c(=O)[nH]c1-c1ccc(N2CCC(c3ccccn3)C2)cc1 (centres unmarked) [Cpd 227, 5-ethyl-2-oxo-6-{4-[3-(pyridin-2-yl)pyrrolidin-1-yl]phenyl}-1,2-dihydropyridine-3-carboxylic acid] | < 1 | 1 to 3.5 (≈ 2.57 to 8.99 µM) | 1 to 3.5 (≈ 2.57 to 8.99 µM) | 12.5 to 150 (≈ 32.1 to 385 µM) | 1 to 3.5 (≈ 2.57 to 8.99 µM) | 3.5 to 12.5 (≈ 8.99 to 32.1 µM) | 12.5 to 150 (≈ 32.1 to 385 µM) | 12.5 to 150 (≈ 32.1 to 385 µM) | 3.5 to 12.5 (≈ 8.99 to 32.1 µM) | – | – | – | – | –
CN[C@@H]1CCC[C@@H]2CN(c3ccc(-c4[nH]c(=O)c(C(=O)O)c(O)c4C)cc3)C[C@@H]21.Cl [Cpd 260, 4-hydroxy-5-methyl-6-{4-[(3aR,4R,7aS)-4-(methylamino)octahydro-2H-isoiridol-2-yl]phenyl}-2-oxo-1,2-dihydropyridine-3-carboxylic acid hydrochloride] | – | – | – | – | – | – | – | – | – | *** (an MIC value between >1.0 μg/mL and ≦3.5 μg/mL is indicated by three stars (***)) | ** (an MIC value between >3.5 μg/mL and ≦12.5 μg/mL is indicated by two stars (**)) | * (an MIC value between >12.5 μg/mL and ≦150 μg/mL is indicated by a single star (*)) | – | MIC, BAS849 [1]: ** (an MIC value between >3.5 μg/mL and ≦12.5 μg/mL is indicated by two stars (**)); MIC, 25922 [2]: ** (an MIC value between >3.5 μg/mL and ≦12.5 μg/mL is indicated by two stars (**)); MIC, 29213 [3]: *** (an MIC value between >1.0 μg/mL and ≦3.5 μg/mL is indicated by three stars (***)); MIC, LZ3111 ([4]; quinolone resistant E. coli LZ3111): **** (an MIC value of ≦1.0 μg/mL is indicated by four stars (****)); MIC ELZ4000 [10]: ** (an MIC value between >3.5 μg/mL and ≦12.5 μg/mL is indicated by two stars (**)); MIC BAA747 [5]: * (an MIC value between >12.5 μg/mL and ≦150 μg/mL is indicated by a single star (*)); MIC 49247 [12]: * (an MIC value between >12.5 μg/mL and ≦150 μg/mL is indicated by a single star (*)); MIC 25238 [13]: ** (an MIC value between >3.5 μg/mL and ≦12.5 μg/mL is indicated by two stars (**)); MIC 13090 [14]: *** (an MIC value between >1.0 μg/mL and ≦3.5 μg/mL is indicated by three stars (***))
CCc1c(-c2ccc(N3C[C@H]4CCCC[C@@]4(CN(C)C)C3)cc2)[nH]c(=O)c(C(=O)O)c1O.Cl [Cpd 266, 6-(4-{(3aR,7aS)-3a-[(dimethylamino)methyl]octahydro-2H-isoindol-2-yl}phenyl)-5-ethyl-4-hydroxy-2-oxo-1,2-dihydropyridine-3-carboxylic acid hydrochloride] | 1 to 3.5 | 12.5 to 150 | 3.5 to 12.5 | 3.5 to 12.5 | 12.5 to 150 | 12.5 to 150 | – | – | 12.5 to 150 | – | – | – | 12.5 to 150 | MIC ([11]; Escherichia coli, read-out: MIC ELZ4251): 12.5 to 150 µg/mL
CCc1c(-c2ccc(N3C[C@@H]4[C@@H](N)[C@@H]4C3)cc2)[nH]c(=O)c(C(=O)O)c1O [Cpd 285, 6-{4-[(1R,5S,6s)-6-amino-3-azabicyclo[3.1.0]hex-3-yl]phenyl}-5-ethyl-4-hydroxy-2-oxo-1,2-dihydropyridine-3-carboxylic acid] | – | – | – | – | – | – | – | – | – | ** (an MIC value between >3.5 μg/mL and ≦12.5 μg/mL is indicated by two stars (**)) | *** (an MIC value between >1.0 μg/mL and ≦3.5 μg/mL is indicated by three stars (***)) | ** (an MIC value between >3.5 μg/mL and ≦12.5 μg/mL is indicated by two stars (**)) | 12.5 to 150 (≈ 35.2 to 422 µM) | MIC MMX2240 [7]: * (an MIC value between >12.5 μg/mL and ≦150 μg/mL is indicated by a single star (*)); MIC ([12]; Haemophilus influenzae, read-out: MIC 49247): < 1 µg/mL; MIC ([13]; Moraxella catarrhalis, read-out: MIC 25238): 1 to 3.5 µg/mL (≈ 2.81 to 9.85 µM); MIC ([14]; Neisseria meningitidis, read-out: MIC 13090): < 1 µg/mL
